# Reference: article PMC11317440, “Soloxolone para-methylanilide effectively suppresses aggressive phenotype of glioblastoma cells including TGF-β1-induced glial-mesenchymal transition in vitro and inhibits growth of U87 glioblastoma xenografts in mice” (Frontiers in Pharmacology, 2024)
# Legend:
# U118 glioblastoma cells = assay: MTT cell viability assay, U118 cells, 48 h; type: cell-based; details: Homo sapiens
# Description: Cells were seeded in quadruplicate in 96-well plates at 10,000 cells/well and allowed to adhere overnight. The medium was then replaced with serum-free DMEM containing increasing concentrations of soloxolone amides for 48 h. After incubation, 3-(4,5-dimethylthiazol-2-yl)-2,5-diphenyltetrazolium bromide (MTT dye) was added at a final concentration of 0.5 mg/mL and left for 2 h. The resulting formazan crystals were dissolved in DMSO and the optical density was measured at 570 nm using a Multiscan RC plate reader (Thermo LabSystems, Helsinki, Finland).
# [1] = tested on: TGF-β1-induced U118 cells; assay: Cell morphology (aspect ratio) of TGF-β1-induced U118 cells; type: cell-based, human; details: TGF-β1 50 ng/mL, 7 50 nM, 48 h
# Description: After seeding at a concentration of 5,000 cells/well in triplicate in 96-well plates and incubating overnight, U87 and U118 cells were exposed to TGF-β1 (50 ng/mL) and non-toxic concentrations of soloxolone amides for 48 h. An EVOS XL Core microscope with an integrated CMOS camera (Thermo Fisher Scientific, USA) was then used to examine cell morphology at ×20 magnification. Aspect ratio (AR) and area were quantified for at least 150 cells in each experimental group using ImageJ software (NIH, USA).
# TGF-β1-treated U87 cells = assay: Adhesion of U87 cells to culture plastic (TrypLE treatment assay); type: cell-based, human; details: TGF-β1 50 ng/mL, non-toxic concentrations, 48 h
# Description: Adhesiveness of glioblastoma cells was assessed by two independent methods. First, cell adhesion to culture plastic was tested using a trypsin treatment assay, as previously described ([Sava et al., 2004]; [Mazuryk et al., 2015]; [van Dijk et al., 2017]). Briefly, U87 and U118 cells (10,000 cells per well of a 96-well plate, n = 4) were cultured with TGF-β1 (50 ng/mL) and non-toxic concentrations of soloxolone amides for 48 h and then treated with a 1:20 dilution of TrypLE Express (Gibco, USA) in PBS for 3 min at 37°C. Non-adherent cells were then removed by a triple PBS wash, and the remaining adherent cells were fixed with 4% formaldehyde and stained with crystal violet dye (0.1% w/v). Images were captured using the iBright 1,500 Imaging System (Invitrogen, USA), and the cell-occupied area was calculated using ImageJ. Alternatively, the number of adherent cells was quantified using the MTT assay.
# EPNT-5 cells [2] = assay: Colony formation assay, EPNT-5 cells; type: cell-based, mouse; details: 10 days
# Description: U87, U118 and EPNT-5 cells were seeded at a density of 200 cells/well in 96-well plates and treated with increasing concentrations of compound 7 (0–1,000 nM) dissolved in 10% FBS-containing DMEM (n = 5). On day 10, colonies were fixed with 4% formaldehyde and stained with crystal violet dye (0.1% w/v). Images were captured using the iBright 1,500 Imaging System (Invitrogen, USA) and the area of colonies with a minimum diameter of 100 µm was calculated using ImageJ. In the case of overlapping colonies, their total area was calculated. Finally, the area of the formed cell colonies was summed and normalized to the total colony area in the control.
# U118 cells = assay: Annexin V-FITC/propidium iodide flow cytometry, U118, 48 h; type: cell-based, human
# Description: To observe apoptosis and necrosis, U87 and U118 cells were stained with Annexin V-FITC and propidium iodide (ab14085; Abcam, Inc., Cambridge, MA, USA) after 48 h of incubation with compound 7 (0–2000 nM) according to the manufacturer’s protocol (n = 3). To quantify the total proportion of apoptotic cells in control and experimental groups, the events accumulated in the lower right quadrant (early apoptosis) and upper right quadrant (late apoptosis) were summarized.
# After staining, 10,000 cells per sample were analyzed on a NovoCyte flow cytometer using NovoExpress software (ACEA Biosciences, Inc., USA).
# U87 cells = assay: MTT assay 72 h, 7 and TMZ alone and combined, synergy (HSA), U87; type: cell-based, human
# Description: (§1) The drug synergy score was calculated for the dose-response matrix according to the highest single-agent (HSA) model using the SynergyFinder + web application (https://www.synergyfinder.org/).
# EPNT-5 cells [3] = assay: MTT assay 72 h, 7 and TMZ alone and combined, synergy (HSA), EPNT-5; type: cell-based, mouse
# Description: as §1
# [4] = tested on: U87 glioblastoma xenograft; assay: U87 glioblastoma xenograft model; type: in vivo, athymic nude mice; details: 7 20 mg/kg i.p.
# Description: A xenograft model of tumor progression was induced by subcutaneous (s.c.) implantation of U87 glioblastoma cells (2×10^7 cells/mL) suspended in 0.1 mL of saline buffer into the left flank of athymic nude mice. On day 4 after tumor transplantation, the mice were divided into four groups: (1) mice received intraperitoneal (i.p.) injections of 10% Tween-80 (vehicle) (n = 6); (2) mice received i.p. injections of compound 7 in 10% Tween-80 at a dose of 20 mg/kg (n = 5); (3) mice received i.p. injections of TMZ in saline buffer at a dose of 10 mg/kg (n = 5); (4) mice received combination therapy of compound 7 and TMZ at the same dosage and administration route (n = 6). Compound 7 was administered three times per week; in total seven injections were performed. TMZ was administered daily except weekends; in total eleven injections were performed. During the experiment, the tumor volumes were determined three times per week using caliper measurements and were calculated as V = (D × d^2)/2, where D is the longest diameter of the tumor node and d is the shortest diameter of the tumor node perpendicular to D. Mice were sacrificed on day 19 after tumor transplantation and material (tumor nodes, livers, and kidneys) was collected for subsequent analysis.
# [5] = Toxicity assessment in U87 glioblastoma-bearing mice; type: in vivo, athymic nude mice; details: 7 20 mg/kg i.p. or TMZ 10 mg/kg i.p. injected alone
# Description: During the experiment, the general status and body weight of the animals were monitored. At the end of the experiment, livers and kidneys were collected and organ indices were calculated as (organ weight/body weight) × 100%, followed by the normalization of organ indices of experimental mice to organ indices of control mice.
smiles,measurement,setting,value
"Cc1ccc(NC(=O)[C@@]2(C)CC[C@]3(C)CC[C@]4(C)[C@H](C(=O)C=C5[C@@]6(C)C=C(C#N)C(=O)C(C)(C)C6CC[C@]54C)[C@@H]3C2)cc1 (stereo partly shown) [compound 7, N-p-tolyl-2-cyano-3,12-dioxo-18βH-olean-9(11),1(2)-dien-30-amide]",IC50,U118 glioblastoma cells,310 nM
same,shape (aspect ratio) of TGF-β1-induced U118 cells,[1],restored the shape of TGF-β1-induced cells to that of the control cells
same,adhesion of TGF-β1-treated U87 cells to culture plastic (MTT readout),TGF-β1-treated U87 cells,one of the most pronounced pro-adhesive effects
same,adhesion of TGF-β1-treated U87 cells to culture plastic (crystal violet),TGF-β1-treated U87 cells,restoring it to control levels
same,colony growth,"EPNT-5 cells [2]; EPNT-5, 7 450 nM",complete abrogation of colony growth
same,colony growth,"EPNT-5 cells [2]; EPNT-5, 7 1,000 nM",complete abrogation of colony growth
same,inhibition at 0.05 µM,"EPNT-5 cells [2]; Mus musculus, 240 h, EPNT-5, 7 50 nM",56.1%
same,inhibition at 0.1 µM,"EPNT-5 cells [2]; Mus musculus, 240 h, EPNT-5, 7 100 nM",69%
same,percentage of cells in the right quadrants (apoptosis),"U118 cells; U118, 7 450 nM",82.5%
same,percentage of cells in the right quadrants (apoptosis),"U118 cells; U118, 7 1,000 nM",95.6%
same,percentage of cells in the right quadrants (apoptosis),"U118 cells; U118, 7 2000 nM",96.4%
same,percentage of necrotic cells,"U118 cells; U118, at any concentration of 7 (450-2000 nM)",≤ 3.5%
same,IC50,"U87 cells; Homo sapiens, U-87 MG, MTT",197 nM
same,reduction of the cytotoxic effect by NAC,"U87 cells; U87, NAC 2 mM, TMZ 125 μM, 7 100 nM",56.2%
same,effect of 7 on TMZ cytotoxicity in EPNT-5 cells,EPNT-5 cells [3]; 7 at 50 nM,antagonistic effect
same,IC50,"EPNT-5 cells [3]; Mus musculus, MTT",199 nM
same,reduction in tumor volume compared to the vehicle group,[4]; day 11,2.1 fold
same,reduction in tumor volume compared to the vehicle group,[4]; day 13,3.2 fold
same,reduction in tumor volume compared to the vehicle group,"[4]; day 15, TMZ 10 mg/kg i.p.",6.6 fold
same,reduction in tumor volume compared to the vehicle group,"[4]; day 18, TMZ 10 mg/kg i.p.",7.2 fold
same,reduction in tumor weight compared to the vehicle,"[4]; end of the experiment (day 19), TMZ 10 mg/kg i.p.",8 fold
same,toxic effects (body weight and organ indices),[5],no toxic effects
